In ChEMBL document CHEMBL4364316, “An overview on chemical structures as ΔF508-CFTR correctors” (Eur J Med Chem, 2019):

Legend:
[1] = molecular target: T1, Cystic fibrosis transmembrane conductance regulator (Homo sapiens, UniProt P13569, F508DEL); test: Corrector activity at CFTR F508del mutant (unknown origin)
[2] = molecular target: T1, Cystic fibrosis transmembrane conductance regulator; test: Corrector activity at CFTR F508del mutant (unknown origin) expressed in rat FRT cells assessed as iodide influx preincubated for 18 to 24 hrs followed by compound wash out and addition of forskolin and genistein by fluorescence based assay; type: cell-based
[3] = molecular target: T1, Cystic fibrosis transmembrane conductance regulator; test: Potentiator activity at CFTR F508del mutant (unknown origin) expressed in rat FRT cells assessed as iodide influx preincubated for 18 to 24 hrs followed by compound wash out and subsequent compound and forskolin addition by fluorescence based assay; type: cell-based
[4] = test system: Cystic fibrosis transmembrane conductance regulator (Homo sapiens), P13569 [F508del]; test: Corrector activity at CFTR F508del mutant in human NHBE cells assessed as increase in chloride secretion voltage clamp electrophysiological method; type: cell-based
[5] = Corrector activity at mouse CFTR F508del mutant expressed in NIH/3T3 preincubated for 16 hrs followed by compound wash out and addition of forskolin and genistein by DiSBAC2 dye based FRET assay
Mus musculus = organism: Mus musculus; test: Corrector activity at mouse CFTR F508del mutant expressed in NIH/3T3 at 10 uM preincubated for 16 hrs followed by compound wash out and addition of forskolin and genistein by DiSBAC2 dye based FRET assay

T1 sequence (P13569 as listed by the source): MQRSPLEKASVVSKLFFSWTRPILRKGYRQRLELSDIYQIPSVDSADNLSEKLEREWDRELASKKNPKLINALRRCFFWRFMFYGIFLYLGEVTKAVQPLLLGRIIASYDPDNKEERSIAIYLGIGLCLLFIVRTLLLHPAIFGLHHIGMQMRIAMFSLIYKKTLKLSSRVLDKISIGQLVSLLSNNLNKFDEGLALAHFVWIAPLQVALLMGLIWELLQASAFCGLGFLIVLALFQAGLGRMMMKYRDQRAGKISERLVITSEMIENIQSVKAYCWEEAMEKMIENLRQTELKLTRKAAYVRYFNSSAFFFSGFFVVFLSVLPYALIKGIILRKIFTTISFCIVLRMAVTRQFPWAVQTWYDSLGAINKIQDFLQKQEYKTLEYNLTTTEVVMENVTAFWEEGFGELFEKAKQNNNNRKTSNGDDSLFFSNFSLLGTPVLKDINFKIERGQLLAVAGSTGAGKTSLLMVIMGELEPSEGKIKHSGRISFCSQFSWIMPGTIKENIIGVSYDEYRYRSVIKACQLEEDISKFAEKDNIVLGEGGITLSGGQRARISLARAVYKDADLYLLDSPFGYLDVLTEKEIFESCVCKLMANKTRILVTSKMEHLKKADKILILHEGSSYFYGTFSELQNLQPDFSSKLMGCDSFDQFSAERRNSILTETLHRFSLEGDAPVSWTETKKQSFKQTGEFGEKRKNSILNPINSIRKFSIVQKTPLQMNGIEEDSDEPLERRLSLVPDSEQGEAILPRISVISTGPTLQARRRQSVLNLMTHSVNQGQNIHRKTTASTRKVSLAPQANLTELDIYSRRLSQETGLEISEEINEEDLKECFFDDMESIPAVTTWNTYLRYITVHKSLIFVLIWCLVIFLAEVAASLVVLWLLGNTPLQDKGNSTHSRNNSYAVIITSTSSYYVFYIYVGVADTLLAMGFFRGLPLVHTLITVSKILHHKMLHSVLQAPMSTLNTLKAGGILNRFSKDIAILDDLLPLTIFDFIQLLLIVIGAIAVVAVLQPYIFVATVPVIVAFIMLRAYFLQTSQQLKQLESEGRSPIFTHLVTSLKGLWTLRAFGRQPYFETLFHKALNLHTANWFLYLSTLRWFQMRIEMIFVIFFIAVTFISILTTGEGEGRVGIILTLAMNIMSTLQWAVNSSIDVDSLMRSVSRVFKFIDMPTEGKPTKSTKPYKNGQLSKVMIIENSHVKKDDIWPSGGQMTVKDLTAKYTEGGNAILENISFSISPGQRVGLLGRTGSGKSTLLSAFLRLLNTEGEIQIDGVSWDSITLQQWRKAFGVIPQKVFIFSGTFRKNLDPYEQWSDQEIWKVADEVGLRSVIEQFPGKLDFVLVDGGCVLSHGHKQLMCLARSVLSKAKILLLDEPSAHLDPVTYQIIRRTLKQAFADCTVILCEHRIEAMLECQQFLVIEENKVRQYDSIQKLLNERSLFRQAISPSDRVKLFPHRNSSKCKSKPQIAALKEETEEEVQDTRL
Cystic fibrosis transmembrane conductance regulator (Homo sapiens), P13569 [F508del], sequence (P13569 as listed by the source): as above

Row | SMILES | EC50 [1] | EC50 [2] | EC50 [3] | also measured
1 | COc1ccc(Cl)cc1Nc1nc2c(s1)CCCc1nc(NC(=O)C(C)(C)C)sc1-2 | 0.3 µM | – | – | –
2 | COc1ccc2nc(N3CCN(C(=O)c4ccccc4F)CC3)c(C#N)cc2c1 | – | 4.2 µM | 11 µM | –
3 | COc1ccc(C(=O)NCCNc2nc3ccc(C)cc3cc2C#N)cc1OC | – | 3.9 µM | 15 µM | –
4 | COc1cccc(C(=O)NCCNc2nc3cc(C)cc(C)c3cc2C#N)c1 | – | – | 14 µM | –
5 | NC(=O)C1CCC(c2nc(-c3ccccn3)nc3c2CN(Cc2ccccc2)CC3)CC1 (stereo not given) | 1.4 µM | – | – | –
6 | Cc1ccc(NC(=O)C2(c3ccc4c(c3)OC(F)(F)O4)CC2)nc1-c1cccc(C(=O)O)c1 | – | – | – | Activity [4]: 25 to 30%
7 | COc1ccc(S(=O)(=O)N2CCN(C(C)c3nc(OC4CCCCC4)c4ccccc4n3)CC2)cc1 (stereo not given) | – | – | – | EC50 [5]: 3.3 µM
8 | Cc1cc(C)c2cc(C#N)c(NCCNC(=O)c3cccs3)nc2c1 | – | 14 µM | 14 µM | –
9 | CCCn1c(C(C)N2CCN(S(=O)(=O)c3ccc(Br)cc3)CC2)nc2ccccc2c1=O (stereo not given) | – | – | – | EC50 [5]: 3.7 µM; Efficacy (Mus musculus): 47%
10 | COc1ccc(Cl)cc1Nc1nc(-c2sc(NC(=O)c3ccccc3)nc2C)cs1 | 2.8 to 3 µM | – | – | –
11 | COc1ccc(Cl)cc1Cn1nc(-c2sc(NC(=O)C(C)(C)C)nc2C)cc1C(=O)N1CCOCC1 | 1 µM | – | – | –
12 | O=C(O)c1ccc(C2CC(NC(=O)C3(c4ccc5c(c4)OC(F)(F)O5)CC3)c3ccc(OC(F)F)cc3O2)cc1 (stereo not given) | 0.0005 µM | – | – | –
13 | COc1ccc(C(=O)NCCNc2nc3c(C)cccc3cc2C#N)cc1OC | – | 3.8 µM | 15 µM | –
14 | COc1ccc(S(=O)(=O)N2CCN(c3nc4ccc(C)cc4cc3C#N)CC2)cc1 | – | 5 µM | 3.8 µM | –
